Data taken from patent publication US20230148214A1, “INDAZOLES AND AZAINDAZOLES AS LRRK2 INHIBITORS” (ESCAPE Bio, Inc., priority 2020, published 2023).

Tests used:
[1] = biological target: T1, LRRK2 G2019S (Homo sapiens, UniProt Q5S007, G2019S); experiment: LRRK2 Kinase Activity Assay (LanthaScreen TR-FRET), G2019S; type: biochemical; conditions: recombinant G2019S-LRRK2, 25 μM ATP, 400 nM LRRKtide, 60 min; class symbols
T1 construct: purchased Life Technologies PV4881
Summary of the method: (§1)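 IC50 fitted to the compound-dependent loss of TR-FRET signal. Each kinase form, wild type or G2019S, phosphorylated the fluorescein-tagged ERM-derived LRRKtide in the presence of ATP and compound dilutions over 60 min at room temperature; quench contained 10 mM EDTA and 2 nM anti-pERM antibody (final).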

[2] = biological target: T2, LRRK2 WT (Homo sapiens, UniProt Q5S007); experiment: LRRK2 Kinase Activity Assay (LanthaScreen TR-FRET), wild type; type: biochemical; conditions: recombinant wild type LRRK2, 25 μM ATP, 400 nM LRRKtide, 60 min; class symbols
T2 construct: purchased Life Technologies PR8604B
T2 sequence (Q5S007 whole entry): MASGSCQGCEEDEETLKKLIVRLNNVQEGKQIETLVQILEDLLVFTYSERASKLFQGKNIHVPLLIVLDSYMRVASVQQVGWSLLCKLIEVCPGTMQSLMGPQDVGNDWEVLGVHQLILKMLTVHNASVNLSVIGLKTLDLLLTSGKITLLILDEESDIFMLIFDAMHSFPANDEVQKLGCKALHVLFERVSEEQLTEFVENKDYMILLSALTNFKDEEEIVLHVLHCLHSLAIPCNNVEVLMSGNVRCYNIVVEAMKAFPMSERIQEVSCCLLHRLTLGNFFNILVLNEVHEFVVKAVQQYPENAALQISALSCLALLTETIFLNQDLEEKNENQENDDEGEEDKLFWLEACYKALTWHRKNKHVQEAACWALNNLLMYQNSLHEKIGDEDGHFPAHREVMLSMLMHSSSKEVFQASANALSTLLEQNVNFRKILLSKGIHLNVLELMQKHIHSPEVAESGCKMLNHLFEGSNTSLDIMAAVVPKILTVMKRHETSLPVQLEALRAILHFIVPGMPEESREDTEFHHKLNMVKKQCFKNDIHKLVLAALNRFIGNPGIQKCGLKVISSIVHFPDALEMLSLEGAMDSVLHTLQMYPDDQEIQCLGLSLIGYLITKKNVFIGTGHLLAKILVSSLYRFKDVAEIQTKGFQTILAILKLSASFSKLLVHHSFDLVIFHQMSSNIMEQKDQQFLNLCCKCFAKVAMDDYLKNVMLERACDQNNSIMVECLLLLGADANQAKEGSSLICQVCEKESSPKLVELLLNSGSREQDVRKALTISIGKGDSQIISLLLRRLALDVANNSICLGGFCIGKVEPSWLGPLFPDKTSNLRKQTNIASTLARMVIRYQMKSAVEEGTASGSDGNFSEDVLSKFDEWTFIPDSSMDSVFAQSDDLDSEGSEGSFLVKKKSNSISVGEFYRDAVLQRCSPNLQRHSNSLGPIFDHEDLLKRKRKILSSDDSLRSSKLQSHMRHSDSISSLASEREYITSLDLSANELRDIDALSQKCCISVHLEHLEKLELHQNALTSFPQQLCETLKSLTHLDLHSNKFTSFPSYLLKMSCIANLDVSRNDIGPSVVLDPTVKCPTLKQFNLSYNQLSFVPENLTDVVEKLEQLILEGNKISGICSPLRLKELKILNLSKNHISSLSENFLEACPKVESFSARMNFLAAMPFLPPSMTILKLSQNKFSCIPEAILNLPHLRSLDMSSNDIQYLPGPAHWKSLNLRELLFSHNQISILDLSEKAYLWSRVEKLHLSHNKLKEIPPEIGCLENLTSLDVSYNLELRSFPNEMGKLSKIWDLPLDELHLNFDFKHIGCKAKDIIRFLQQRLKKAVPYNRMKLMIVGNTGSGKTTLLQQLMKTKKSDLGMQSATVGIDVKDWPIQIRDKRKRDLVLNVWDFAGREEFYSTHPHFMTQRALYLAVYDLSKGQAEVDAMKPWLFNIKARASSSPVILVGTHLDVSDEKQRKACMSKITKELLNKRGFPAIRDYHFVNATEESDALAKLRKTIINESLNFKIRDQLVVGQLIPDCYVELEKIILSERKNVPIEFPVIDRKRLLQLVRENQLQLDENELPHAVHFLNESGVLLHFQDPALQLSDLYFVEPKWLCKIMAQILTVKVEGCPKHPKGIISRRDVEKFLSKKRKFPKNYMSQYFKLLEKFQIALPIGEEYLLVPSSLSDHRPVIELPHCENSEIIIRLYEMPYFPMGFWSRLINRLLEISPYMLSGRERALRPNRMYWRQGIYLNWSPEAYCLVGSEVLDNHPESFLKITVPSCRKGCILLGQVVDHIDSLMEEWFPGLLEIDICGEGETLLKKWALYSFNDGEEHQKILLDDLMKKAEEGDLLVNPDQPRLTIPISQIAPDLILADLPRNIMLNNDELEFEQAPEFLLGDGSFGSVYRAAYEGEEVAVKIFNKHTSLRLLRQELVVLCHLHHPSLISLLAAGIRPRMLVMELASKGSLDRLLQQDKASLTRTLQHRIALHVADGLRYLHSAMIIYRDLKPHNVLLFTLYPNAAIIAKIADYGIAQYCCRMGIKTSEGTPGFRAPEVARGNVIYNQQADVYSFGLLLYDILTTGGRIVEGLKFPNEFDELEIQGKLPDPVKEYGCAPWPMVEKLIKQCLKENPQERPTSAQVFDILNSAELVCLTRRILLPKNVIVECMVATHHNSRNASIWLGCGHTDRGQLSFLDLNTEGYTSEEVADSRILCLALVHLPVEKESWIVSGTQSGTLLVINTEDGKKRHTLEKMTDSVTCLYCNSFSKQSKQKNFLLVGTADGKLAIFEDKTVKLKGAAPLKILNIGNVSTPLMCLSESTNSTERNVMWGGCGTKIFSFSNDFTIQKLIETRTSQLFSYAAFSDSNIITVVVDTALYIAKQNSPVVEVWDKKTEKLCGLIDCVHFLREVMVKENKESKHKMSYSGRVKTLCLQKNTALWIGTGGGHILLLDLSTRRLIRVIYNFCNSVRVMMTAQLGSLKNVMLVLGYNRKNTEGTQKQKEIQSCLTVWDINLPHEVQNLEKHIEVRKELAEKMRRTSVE
Summary of the method: as §1

T1 sequence (Q5S007 whole entry G2019S): as the sequence (Q5S007 whole entry) above, with G2019S counted along it

IC50 [1]: < 100 nM
IC50 [2]: < 100 nM
Structure (SMILES): N#Cc1ccc2c(c1)CCC[C@@H]2Nc1ccc2[nH]nc(-c3ccc4ncsc4c3)c2c1 [Example 59, 5-((3-(Benzo[d]thiazol-6-yl)-1H-indazol-5-yl)amino)-5,6,7,8-tetrahydronaphthalene-2-carbonitrile]
